Counter-ions that a name gives are not always drawn.
Key:
[1] = test system: rats; experiment: Rat rotarod motor coordination test; assay type: in vivo
Method: The effects of the hydrochloride salt of (t)-N-(2-chloro-5-methylthiophenyl)-N′-(3-methylsulfinylphenyl)-N′-methylguanidine (compound (I)) on motor coordination were assessed using the rotarod test. Drug solutions were administered i.v. through the tail vein of test rats in a volume of 5.0 ml/kg at a rate of 1 ml/min. The percentage of animals in each treatment group that fell from the rotarod at each of the four time points tested is summarized in the following Table I. Control was 20% C.D. N in each of the Tables below specifies the number of animals in each test group.
The latency for falling from the rotarod was statistically analyzed using analysis of variance (ANOVA), and a Neumann Keuls post-hoc was applied when appropriate. […] In FIG. 1, “**” designates P<0.01 and “***” designates P<0.001.
(§1) The acetate salt of (−)-N-(2-chloro-5-methylthiophenyl)-N′-(3-methylsulfinylphenyl)-N′-methylguanidine was also tested in the same rotarod assay protocol as described in Part A above. Drug solutions were administered i.v. through the tail vein in a volume of 5 ml/kg at a rate of 1 ml/min. In Table II, Control (1) is 60 mM Acetate Buffer in 0.3M mannitol at 0.06 and 0.125 mg/kg doses and Control (2) is 60 mM Acetate Buffer in 0.3M mannitol at 0.25 and 0.5 mg/kg doses.
as §1, with “(+)-N-(2-chloro-5-methylthiophenyl)-N′-(3-methylsulfinylphenyl)-N′-methylguanidine” for “(−)-N-(2-chloro-5-methylthiophenyl)-N′-(3-methylsulfinylphenyl)-N′-methylguanidine”, “III,” for “II,”
The results for compounds of the invention can be compared to those obtained for MK-801, i.e. (+)-5-methyl-10,11-dihydro-5H-dibenzo[a,d]cyclohepten-5,10-imine maleate. In the rotarod test for MK-801, drug solutions were administered i.v. through the tail vein of each test rat in a volume of 5 ml/kg at a rate of 1 ml/min. The control was 0.9% saline solution.

[2] = test system: rats; experiment: Irwin general behavior screen; assay type: in vivo, rat; conditions: times in minutes
From the text: See S. Irwin, Animal and Clinical Pharmacologic Techniques in Drug Evaluation, pages 36-54 (Year Book Medical Publishers, Chicago), which details the protocol of the Irwin behavior screen.

[3] = test system: rats; experiment: Rat MCAO ischemia model; assay type: in vivo; conditions: in thirds at 10 min, 1 h and 2 h
Method: A. The hydrochloride salt of (±)-N-(2-chloro-5-methylthiophenyl)-N′-(3-methylsulfinylphenyl)-N′-methylguanidine (compound (I)) was tested in the rat MCAO ischemia model with % reduction in total lesion volume (mm^3) determined by the following protocol.
Rats were anaesthetized with isoflurane and focal ischemia was induced by directly ligating the main trunk of MCA using a bipolar electrocoagulor. Coronal sections (seven sections, 2.0 mm intervals) were collected and incubated in 2,3,5-triphenyltetrazolium chloride (TTC) solution for 15 minutes at 37° C., then fixed in 4% paraformaldehyde solution in the dark at 4° C. for at least 48 hours. Seven sections of each brain were photographed and analyzed. The areas that were not stained red with TTC were measured as infarction.
The test animals were treated with the test compound and control (mannitol) as follows. Ten minutes after the MCAO incident the test animals were administered (i.v. infusion/10 minutes) with one third of the total dose of the test compound (total doses specified below); 1 hour after that first dosing the test animals were given another one third of the total dose of the test compound; and then 2 hours after that first dosing the test animals were given another one third of the total dose of the test compound. Mannitol was administered to the control group at the first dosing only.
Sprague-Dawley rats with body weights of 270-320 grams were used in the study.

[4] = test system: rat pups; experiment: Rat pup hypoxia-ischemia model; assay type: in vivo
Method: A. The hydrochloride salt of (±)-N-(2-chloro-5-methylthiophenyl)-N′-(3-methylsulfinylphenyl)-N′-methylguanidine was tested in the rat pup hypoxia-ischemia model with % reduction in total lesion volume determined at the specified test dose. A rat pup hypoxia-ischemia assay protocol of the following protocol was employed.
8 day-old rat pups weighing 17-23 grams were anaesthetized with isoflurane and the left common carotid artery ligated. Immediately prior to the hypoxia-ischemia (H-I) insult a test group of animals was injected intraperitoneally with 2 mg/kg, 5 mg/kg or 10 mg/kg of the test compound and a control group was treated with a corresponding dose of mannitol. Then, immediately after the H-I insult, the animals received a second equivalent dose, i.e. the test group of animals was injected intraperitoneally with 2 mg/kg (total 4 mg/kg administered in the two doses), 5 mg/kg (total 10 mg/kg administered in the two doses) or 10 mg/kg (total 20 mg/kg administered in the two doses) of the test compound and a control group was treated with a corresponding dose of mannitol. The animals were then allowed to recover for 1-2 hours and then exposed to 7.8% O2 in nitrogen for 78 minutes in an incubator at 36.5° C. The rat pups were returned to mothers immediately after the H-I insult. The animals were sacrificed two days after H-I insult, their brain was removed and cut into four 2 mm thick slices prior to staining with 2% 2,3,5-triphenyltetrazolium chloride (TTC) solution. The sections were then fixed with 4% paraformaldehyde solution in the dark at 4° C. for at least 48 hours. Four sections from each brain were imaged and analyzed using the IPLab system. The lesion area which was not stained red with TTC was measured as infarction.
B. The acetate salt of (+)-N-(2-chloro-5-methylthiophenyl)-N′-(3-methylsulfinylphenyl)-N′-methylguanidine was also tested in the rat pup hypoxia-ischemia model with % reduction in total lesion volume determined by the same protocol as specified in Part A above, except the rat pups were exposed to 7.8% O2 in nitrogen for 85 minutes.

[5] = cited from earlier work
[6] = test system: mouse; conditions: in vivo; cited from earlier work
[7] = total dose 2.25 mg/kg i.v. infusion
[8] = total dose 4.5 mg/kg i.v. infusion, 4.5 mg/kg
[9] = total dose 9 mg/kg i.v. infusion, 9 mg/kg

Q: Which “lethality of pre-testing doses” value ([1]; rat, in vivo) does the source give for CSc1ccc(Cl)c(NC(=N)N(C)c2cccc([S+](C)[O-])c2)c1 (racemic) [compound (I), N-(2-chloro-5-methylthiophenyl)-N′-(3-methylsulfinylphenyl)-N′-methylguanidine] here?
A: The value was “lethal”.

Q: And the “behavioral effects observed in Irwin screen” value ([2]; 4 mg/kg i.v.)?
A: Its value is “excitation (120-180′) sterotypies (sniffing 60-180′) fore-paw treading (120′) loss of traction (2 of 3, 120′)”.

Q: And the “behavioral effects observed in Irwin screen” value ([2]; 16 mg/kg i.v.)?
A: The value was “excitation (30-180′) sterotypies (head-weaving to 180′) fore-paw treading (to 180′) loss of traction (to 180′) hypothermia”.

Q: And the “% reduction in total lesion volume” value [3, 7]?
A: The value was 24%.

Q: And the “% reduction in total lesion volume” value ([3]; total dose 4.5 mg/kg i.v. infusion)?
A: The value was 32%.

Q: And the “% reduction in total lesion volume” value ([3]; total dose 9 mg/kg i.v. infusion)?
A: The value was 46%.

Q: And the “% reduction in total lesion volume” value ([4]; i.p. total dose of 10 mg/kg, 7.8% O2 for 78 minutes)?
A: Its value is 60%.

Q: And the “% reduction in total lesion volume” value ([4]; i.p. total dose of 20 mg/kg, 7.8% O2 for 78 minutes)?
A: The value was 100%.

Q: Which results are given for CSc1ccc(Cl)c(NC(=N)N(C)c2cccc([S+](C)[O-])c2)c1 (single isomer, unassigned; (+)) [compound (IB), (+)-N-(2-chloro-5-methylthiophenyl)-N′-(3-methylsulfinylphenyl)-N′-methylguanidine]?
A: latency for falling from the rotarod (falling times) ([1]; rat, in vivo): no statistically significant differences; latency for falling from the rotarod vs control groups ([1]; rat, in vivo): significantly shorter latencies; % reduction in total lesion volume [3, 7]: 23%; % reduction in total lesion volume [3, 8]: 32%; % reduction in total lesion volume [3, 9]: 34%; % reduction in total lesion volume ([4]; i.p. total dose of 10 mg/kg, 7.8% O2 for 85 minutes): 78%; % reduction in total lesion volume ([4]; i.p. total dose of 20 mg/kg, 7.8% O2 for 85 minutes): 93%

Q: For CSc1ccc(Cl)c(NC(=N)N(C)c2cccc([S+](C)[O-])c2)c1 (single isomer, unassigned; (-)) [compound (IA), (−)-N-(2-chloro-5-methylthiophenyl)-N′-(3-methylsulfinylphenyl)-N′-methylguanidine], which “latency for falling from the rotarod (falling times)” value ([1]; rat, in vivo) is on record?
A: The value was “no statistically significant differences”.

Q: And the “latency for falling from the rotarod vs control groups” value ([1]; rat, in vivo)?
A: Its value is “significantly shorter latencies”.

Q: What about the “% reduction in total lesion volume” value [3, 8] of the same molecule?
A: The value was 1%.

Q: And the “% reduction in total lesion volume” value [3, 9]?
A: The value was 22%.

Q: With C[C@]12N[C@H](Cc3ccccc31)c1ccccc12 [MK-801, (+)-5-methyl-10,11-dihydro-5H-dibenzo[a,d]cyclohepten-5,10-imine maleate] as the molecule, how does the “percentage of animals that fell from the rotarod” value (shortened to “percentage of animals that fell”) ([1]; 0.01 mg/kg i.v., 15 min.) read?
A: Its value is 38%.

Q: And the “percentage of animals that fell” value ([1]; 0.01 mg/kg i.v., 60 min.)?
A: The value was 13%.

Q: And the “percentage of animals that fell” value ([1]; 0.01 mg/kg i.v., 120 min.)?
A: The value was 25%.

Q: And the “percentage of animals that fell” value ([1]; 0.05 mg/kg i.v., 15 min.)?
A: Its value is 86%.

Q: What about the “percentage of animals that fell” value ([1]; 0.05 mg/kg i.v., 60 min.) of the same molecule?
A: Its value is 57%.

Q: And the “percentage of animals that fell” value ([1]; 0.05 mg/kg i.v., 120 min.)?
A: The value was 29%.

Q: What about the “results in in vivo models of stroke” value [5] of the same molecule?
A: The value was “good results”.

Q: What about the “activity in mouse audiogenic tests” value [6] of the same molecule?
A: Its value is “good activity”.
